In US8100830B2, “Non-therapeutic methods of evaluating skin neurosensitivity, kit and use of a kit for implementing the method” (Societe l'Oreal S.A., priority 2002, dated 2012):

Experiments:
[1] = assay type: physicochemical
Source text: When the peripheral nervous system stimulant is capsaicin, a preferred vehicle is an aqueous-alcoholic solution, advantageously an aqueous-ethanolic solution, containing from 1% to 50% of ethanol in water, advantageously from 5% to 20%, preferably from 8% to 15% and more preferably 10%.

[2] = system: skin of a non-selective population of 150 women; test: Example 7: skin neurosensitivity threshold of 150 women with the kit of Example 3 (capsaicin solutions C1-C5); assay type: in vivo, human
Description: This kit allows approximately 50 instances of use and comprises in a box (B) the following elements: • 1. a holder P allowing […] bottles as described in section 2 of this list to be held upright; • 2. 5 bottles F3 of 20 ml containing respectively 15 ml of solutions C1-C5 (3.16×10^−5% (C1), 1×10^−4% (C2), 3.16×10^−4% (C3), 1×10^−3% (C4) and 3.16×10^−3% (C5)) and a bottle F3T containing 15 ml of a 10% aqueous-alcoholic solution T; these bottles are shown in FIG. 2 and correspond to those defined in section 4 of Example 2; • 3. 80 standard cotton buds CT; • 4. a usage note containing the following elements: • a) use instructions for the implementation of the test, reproducing the protocol of Example 1, using the cotton buds and the bottles F3C1-5 and F3T; the bottles must be stored at 4° C. between two instances of use and discarded after one week of use. • b) a calibration system (atlas) allowing interpretation of the results (C1: excessively sensitive skin; C2: highly sensitive skin; C3: moderately sensitive skin; C4: relatively insensitive skin; C5: virtually insensitive skin; C5 not detected: completely insensitive skin).
Use of the Kit of Example 3 to Determine the Skin Neurosensitivity Threshold of 150 Women:
Study performed in a single-blind procedure on a non-selective population of 150 women aged from 18 to 60 years living in Paris or the surrounding region.
It is interesting to note that the sensations reported at the level of the detection threshold (characterized by a sensation detected on the side where the capsaicin was applied, lasting for at least 30 seconds) are highly varied (presence, pins and needles, stinging, hotness, etc.)

[3] = system: nasogenial sulci of healthy subjects; test: Example 1: detection threshold test, increasing capsaicin concentrations C1-C4 applied to the nasogenial sulci against vehicle; assay type: in vivo, human; conditions: 13 healthy subjects, 3.3×10^−5% to 1×10^−3% in ethanol 10%, water 90%
Description: Capsaicin was tested in the form of aqueous-alcoholic solutions (ethanol 10%, water 90%).
Experimental Design: • Randomized, single-blind study, controlled • 13 healthy subjects of both sexes • 4 capsaicin solutions tested: 3.3×10^−5% (C1), 1×10^−4% (C2), 3.3×10^−4% (C3), 1×10^−3% (C4)
1st step: Simultaneous application to the nasogenial sulci on each side of the face of the vehicle, using impregnated cotton buds, in order to acclimatize the volunteer to the sensations induced by application of the vehicle. Waiting time of 3 minutes.
2nd step: Application of the vehicle to one side and of the capsaicin solution at concentration C1 on the other. After 3 minutes, ask whether the subject has perceived a difference between the 2 sides. If the subject describes an unattractive sensation on the side which has received the capsaicin, stop the test and allocate C1 as the detection threshold. If not, go immediately to step 3.
3rd step: Application of solution C2 to the side which has received the vehicle in […] and of the vehicle to the other side. After 3 minutes, ask whether the subject has perceived a difference between the 2 sides. If the subject describes a particular sensation on the side which has received the capsaicin, stop the test and allocate C2 as the detection threshold. If not, go immediately to step 4. […]

[4] = 109 women who detected a concentration, intensity scale 1 to 5

COc1cc(CNC(=O)CCCC/C=C/C(C)C)ccc1O [capsaicin]
stability over time of aqueous-ethanolic solutions [1]: particularly stable over time | delay before appearance of the sensation, maximum ([2]; 74 of the 150 subjects): 120 s | delay before appearance of the sensation, minimum ([2]; 74 of the 150 subjects): 60 s | delay before appearance of the sensation, mean ([2]; 74 of the 150 subjects, at the detection threshold): 79.9 s | sensations at level 2 (slight but perceptible) at the detected concentration [2, 4]: 95% | sensations at level 3 (moderately clearly perceptible) at the detected concentration [2, 4]: 5% | sensations of level 4 (substantial) or painful at the detected concentration [2, 4]: No sensation of level 4 (“substantial”) or (“painful”) was reported | subjects who detected C1, C2 or C3 (sensitive to highly sensitive population) ([2]; 150 women, C1 3.16×10^−5%, C2 1×10^−4%, C3 3.16×10^−4%): 56% | subjects who detected C4 or C5 or did not detect any concentration (virtually or completely insensitive population) ([2]; 150 women, C4 1×10^−3%, C5 3.16×10^−3%): 44% | women who detected a concentration ([2]; of 150 women, C1-C5): 109 | tolerance of the test (pain) as evaluated by the subjects [3]: absolutely painless for all of the 13 subjects
